Experimental data: patent US20260028584A1, “METHOD FOR EVALUATING AGGREGATION-SUPPRESSING ACTIVITY OR AGGREGATION-PROMOTING ACTIVITY ON AGGREGATING PROTEIN USING ORGANOID, AND METHOD FOR PRODUCING ORGANOID” (KANEKA CORPORATION, priority 2023, published 2026)

Target: T1, amyloid β protein (QD-Aβ / Aβ42) deposited on and/or in cerebral organoid (Homo sapiens, UniProt P05067)
T1 construct: To a reagent bottle of Aβ1-42 0.5 mg (manufactured by Peptide Institute, Inc.: Cat No. 4394v); purchased Peptide Institute, Inc. 4394v; host or cells: synthetic peptide, added to the culture of a cerebral organoid derived from human iPS cells (HPS08554)
Assay: Aβ deposition suppression on cerebral organoid with quantum dot-modified amyloid β (QD-Aβ), fluorescence image analysis
Type: cell-based
Conditions: rosmarinic acid 50 μM; QD-Aβ 30 nM, artificial Aβ 10 μM; human iPS cell-derived cerebral organoid; 24 hours at 37° C.
Protocol: An end of a tip for 1000 μL was cut with sterilized scissors, and the organoid grown to a diameter of 1 mm or larger prepared in Example 1 was sucked so as not to collapse, and transferred to a U-bottom 96-well plate. […]
The next day, the culture supernatant was completely removed so as not to suck the organoid, and after 150 μL of a fresh NbM medium was added, the cultured organoid was observed and photographed using a fluorescence microscope.
Using a fluorescent microscope (BZ-X800 manufactured by Keyence Corporation), the cultured organoid in Example 2 was photographed in a bright field at high resolution with an exposure time of 1/500 s to 1/2000 s, or at high sensitivity with an exposure time of 1/2000 s to 1/5000 s, using a Z stack with 20 μm intervals. […] Thereafter, in order to observe the deposition of quantum dot-modified amyloid β on the cultured organoid, red fluorescence was observed using a TRITC lens at high sensitivity with an exposure time of ¼ s to 1/8.5 s, and images were obtained according to the above procedure.
Each of the images obtained above was analyzed as follows. Specifically, the hybrid cell count function was used to read the organoid images used in the various tests, select the bright field, and then set the extraction selection to OFF. The threshold of the read bright-field images was set to 200, and the organoid area was calculated (organoid surface area). […]

T1 sequence (P05067 672-713): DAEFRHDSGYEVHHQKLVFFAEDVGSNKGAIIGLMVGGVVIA

O=C(/C=C/c1ccc(O)c(O)c1)O[C@H](Cc1ccc(O)c(O)c1)C(=O)O [rosmarinic acid, Rosmarinic acid]
Aβ deposition suppression rate: less than 5.0%
